Test results: patent publication US12403184B2, “Compositions and methods for treating neurodegenerative disroders” (priority 2018, dated 2025)
Where no end group is shown, it is not given here.

Key:
mtDNA = mtDNA content in plasma of YAC128 mice by qPCR; assay type: in vivo, mouse; conditions: YAC128 mice at the age of 6 months
Experimental: For isolation of DNA from mouse plasma, the QIAamp DNA Blood Mini Kit (QIAGEN) was used. Briefly, 100-200 μl mouse plasma was subjected to total DNA extraction. Then the eluted DNA was diluted (1:5) to perform the qPCR experiment.

HdhQ111 cells [1] = assay: Western blot of mitochondrial biogenesis and electron transport proteins in striatal cells; assay type: cell-based, mouse
Experimental: (§1) Mouse striatal cell lines HdhQ7 and Q111 cells are immortalized from knock-in mice carrying 7 and 111 CAG repeats, respectively, in the mouse htt gene. HdhQ7 and HdhQ111 purchased from CHDI Foundation were cultured in DMEM supplemented with 10% (v/v) heat-inactivated FBS, 1% (v/v) penicillin/streptomycin, and 400 μg/ml G418 at 33° C. with 5% CO2. Cells within 14 passages were used in all experiments.
(§2) Protein concentration was measured by protein assay dye reagents (Bio-rad). The protein was resuspended in Laemmli buffer, loaded on SDS-PAGE, and transferred onto nitrocellulose membranes. Membranes were probed with the indicated antibodies, followed by visualization with ECL. Representative blots have been cropped for presentation.

[2] = system: activated microglial cells; assay: Iba1 immunofluorescence of microglial activity in HD mouse striatum; assay type: in vivo
Experimental: For Iba1 immunofluorescence staining, mice were deeply anesthetized and transcardially perfused with 4% paraformaldehyde in PBS. Frozen brain sections (10 μm, coronal) were permeabilized with 0.1% Triton X-100 in TBS-T buffer followed by blocking with 5% normal goat serum. The brain sections were then incubated with anti-Iba1 antibody (1:500 dilution) for overnight at 4° C., followed by staining with Alex-488 anti-rabbit secondary antibody (1:2000 dilution). Iba1-immunopositive cells in the […] were quantitated by image J software.

[3] = system: mitochondrial fusion and fission-related proteins; assay: Total protein levels of mitochondrial dynamics proteins by western blot; assay type: cell-based
Experimental: as §2

ATAD3A = molecular target: T1, ATAD3A (Mus musculus, UniProt Q925I1); assay: ATAD3A dimerization by western blot, Neuro2A cells; assay type: cell-based; conditions: Neuro2A cells exposed to 3-NP (5 mM, 7 hours), DA1 1 μM overnight
T1 construct: endogenous in cells; host or cells: Neuro2A cells
T1 sequence (Q925I1 1-591): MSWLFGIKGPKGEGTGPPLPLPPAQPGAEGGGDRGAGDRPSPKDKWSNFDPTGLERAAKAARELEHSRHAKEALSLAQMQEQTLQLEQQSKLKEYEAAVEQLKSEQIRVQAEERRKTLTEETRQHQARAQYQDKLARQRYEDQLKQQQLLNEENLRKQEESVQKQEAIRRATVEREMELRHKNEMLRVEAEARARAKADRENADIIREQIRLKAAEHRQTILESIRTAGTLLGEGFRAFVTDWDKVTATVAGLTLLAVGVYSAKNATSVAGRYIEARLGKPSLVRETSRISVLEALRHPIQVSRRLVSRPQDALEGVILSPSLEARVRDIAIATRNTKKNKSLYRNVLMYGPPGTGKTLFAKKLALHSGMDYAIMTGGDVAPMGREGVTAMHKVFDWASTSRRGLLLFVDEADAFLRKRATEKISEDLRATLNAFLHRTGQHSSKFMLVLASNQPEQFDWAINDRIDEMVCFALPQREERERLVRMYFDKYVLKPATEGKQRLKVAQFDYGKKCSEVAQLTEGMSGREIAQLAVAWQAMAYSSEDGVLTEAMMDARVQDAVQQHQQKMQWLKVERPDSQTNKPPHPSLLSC
Experimental: To analyze dimerization of ATAD3A under non-reducing conditions, the cells or tissues were harvested and lysed with total lysates buffer. An equal amount of proteins was subject to 8% SDS-PAGE analysis in the presence or absence of β-mercaptoethanol (β-ME). For in vitro BMH crosslinking, the cell lysates were incubated with 1 mM BMH at r.t. for up to 25 min and quenched with 0.1% β-ME, followed by SDS-PAGE analysis. For in-vivo crosslinking, the cells were treated with cell-permeable crosslinker BMH (1 mM) for 20 min at 37° C. After crosslinking, the cells were quenched in PBS with 0.1% β-ME. For DSP crosslinking, the cells were treated with cell-permeable crosslinker for 5 min at 37° C., followed by quenching and washing with 10 mM Glycine in PBS. For formaldehyde (FA) crosslinking, the cells were incubated with PBS buffer containing 1% FA for 20 min at r.t., and the crosslinking reaction was terminated by washing in PBS containing 100 mM glycine. The cells were then lysed and subject to 8% SDS-PAGE analysis. For DTSSP crosslinking of proteins in mitochondrial fractions, isolated mitochondria samples were suspended in the mitochondrial lysis buffer (250 mM sucrose, 20 mM HEPES-NaOH, pH 7.5, 10 mM KCl, 1.5 mM MgCl2, 1 mM EDTA, 1 mM EGTA and protease inhibitor). An equal amount of crude mitochondria was incubated at 30° C. in the presence of 0.5 mM DTSSP. […]

HdhQ111 cells [4] = assay: Mitochondrial morphology (anti-Tom20 staining) in striatal cells; assay type: cell-based, mouse; conditions: 1 μM/day for 4 days, relative to TAT
Experimental: as §1
Cells grown on coverslips were fixed with 4% paraformaldehyde for 20 mins at r.t., permeabilized with 0.1% Triton X-100 in PBS and blocked with 2% normal goat serum. The cells were then incubated with primary antibody (overnight, at 4° C.) followed by Alexa Fluor 568 or 488 secondary antibody (2 h, r.t.). After staining with Nuclei with Hoechst dye (1:10,000 dilution), the cells were mounted onto slides. The cells were imaged by Fluoview FV1000 microscopy (Olympus).

HdhQ7 and HdhQ111 cells = assay: Mitochondrial respiratory activity (Seahorse analyzer); assay type: cell-based, mouse
Experimental: Mitochondrial respiration activity in HdhQ7 and HdhQ111 cells was analyzed using a Seahorse Bioscience XFp Extracellular Flux Analyzer. The cells were seeded in XFp […] microplates at 6,000 cells per well in 50 μl of growth medium. One hour prior to measuring oxygen consumption, the cell culture media was replaced with XF assay medium and maintained in a non-CO2 incubator for 1 h. The sensor cartridges were placed in the XFp Analyzer according to the manufacturer's instructions for the Mito Stress Test kit. In brief, mitochondrial function was determined by the sequential injection of oligomycin A (2.5 μg/mL), FCCP (1 μM), and antimycin A (4 μM). Following each experiment, the total cellular number of each well was determined using DAPI staining.

[5] = HdhQ111 cells, 1 μM/day for 4 days

In the case of “YGRKKRRQRRRGGEDKRKT-NH2 [DA1, YGRKKRRQRRR-GG-EDKRKT-NH2]”, the “increase of plasma mtDNA content” value (mtDNA) was “abolished”, the “elevation of TFAM level by DA1 treatment” value (HdhQ111 cells [1]; HD mutant cells with ATAD3A knockdown (siRNA)) was “ATAD3A knockdown abolished” and the “nuclear-encoded mitochondrial respiratory chain components” value (HdhQ111 cells [1]; HdhQ111 cells) was “no effect”. The PGC1α level (HdhQ111 cells [1]; [5]) was “restored”, the TFAM level (HdhQ111 cells [1]; [5]) was “restored” and the mtCO2 protein level (HdhQ111 cells [1]; [5]) was “corrected”. The “inflammatory response (Iba1-marked activated microglial cells)” value ([2]; HD R6/2 mouse striatum, 12 weeks old) was “corrected”, the “inflammatory response (Iba1-marked activated microglial cells)” value ([2]; YAC128 mouse striatum, 6 months old) was “corrected” and the “other mitochondrial fusion and fission-related proteins (total protein levels)” value [3] was “did not affect”. For the same substance, the “dimerization of ATAD3A” value (ATAD3A) was “abolished”, the “number of cells with fragmented mitochondria” value (HdhQ111 cells [4]) was “reduced” and the mitochondrial respiratory activity (HdhQ7 and HdhQ111 cells; HdhQ7 cells) was “minor effects”. For the same substance, the ATP production (HdhQ7 and HdhQ111 cells; HdhQ111 cells) was “improved”, the maximal respiratory capacity (HdhQ7 and HdhQ111 cells; HdhQ111 cells) was “improved” and the spare respiratory capacity (HdhQ7 and HdhQ111 cells; HdhQ111 cells) was “improved”. For the same substance, the mitochondrial respiratory defects (HdhQ7 and HdhQ111 cells; [5]) was “attenuated”.
